Laboratory results taken from patent US8623998B2, “Method of production of polyanionic drug-carrier conjugates” (priority 2008, dated 2014).

Tested on: P388 leukemia
Test: Survival of mice with P388 leukemia treated with methotrexate-fibrinogen conjugate
Format: in vivo
Conditions: dosage of methotrexate 40 mg/kg
Method: Table of survival of mice with P388 leukemia treated with methotrexate-fibrinogen conjugate. Dosage of methotrexate 40 mg/kg.
S—number of mice with no leukemia detected on the 60th day of the experiment (mice considered cured) L—number of mice which died before the control ILS—ILS increase of life span Conjugates F-MTX were obtained in the reaction of fibrinogen glycation with fructose. Conjugates G-MTX were obtained in the reaction of fibrinogen glycation with glucose. Glycation was carried out according to the high temperature procedure.
Table, of survival of, mice with P388 leukemia treated with methotrexate fibrinogen conjugate. Dosage of methotrexate 40 mg/kg.

With `CN(Cc1cnc2nc(N)nc(N)c2n1)c1ccc(C(=O)N[C@@H](CCC(=O)O)C(=O)O)cc1` [Methotrexat, methotrexate] the “ILS (%) increase of life span” value was 36% and the Mean survival rate (experiment ended on 60th day) was 15.0.
